# Calls of active or inactive are those of the source.
# What was measured:
# [1] = biological target: Induced myeloid leukemia cell differentiation protein Mcl-1 (Homo sapiens, UniProt Q07820); assay type: functional
# [2] = biological target: Intestinal-type alkaline phosphatase (Homo sapiens, UniProt P09923); assay: Dose Response confirmation of uHTS hits from a small molecule inhibitors of human intestinal alkaline phosphatase via a luminescent assay. [Related pubchem assays (depositor defined):AID2544, AID2574]; assay type: functional
# Chain of Intestinal-type alkaline phosphatase (P09923 whole entry): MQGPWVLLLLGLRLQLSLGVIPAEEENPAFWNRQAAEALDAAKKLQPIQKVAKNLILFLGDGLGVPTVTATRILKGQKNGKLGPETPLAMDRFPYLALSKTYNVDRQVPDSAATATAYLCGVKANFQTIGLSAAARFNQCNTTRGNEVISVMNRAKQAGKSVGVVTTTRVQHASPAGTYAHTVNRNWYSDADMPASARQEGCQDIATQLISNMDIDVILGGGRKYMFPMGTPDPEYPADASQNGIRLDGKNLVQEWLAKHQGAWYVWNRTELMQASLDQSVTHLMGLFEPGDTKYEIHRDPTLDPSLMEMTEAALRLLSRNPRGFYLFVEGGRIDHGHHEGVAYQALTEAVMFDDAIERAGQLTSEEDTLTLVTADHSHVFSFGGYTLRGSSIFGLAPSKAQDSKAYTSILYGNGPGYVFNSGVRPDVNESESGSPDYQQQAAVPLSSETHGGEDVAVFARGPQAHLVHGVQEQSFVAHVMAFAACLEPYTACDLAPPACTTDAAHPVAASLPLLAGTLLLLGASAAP
# INS1 = assay: INS-1E survival protection against cytokine death – cell-based, luminescence, retest, dose response (AID 449756); assay type: functional; conditions: Rattus norvegicus;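 note: cell death triggered by IL-1 beta plus TNF-alpha plus IFN-gamma mixture; protective hits raise ATP signal compared with cytokine alone wells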
# [3] = reduction of Shn3 3'UTR-driven luciferase in osteoblasts – cell-based, Clone20 osteoblasts, firefly luciferase, cherry-picked, dose response (AID 624132); assay type: functional;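 note: firefly luciferase luminescence from reporter carrying the Shn3 3'UTR in osteoblasts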
# [4] = non-specific 3'UTR reporter inhibition in Clone20-Shn3RL – cell-based, Renilla luciferase, cherry-picked, counter-screen for Shn3 inhibitor project, dose response (AID 624133); assay type: functional
# [5] = loss of viability in HepG2 cells – cell-based, CellTiter-Glo, cherry-picked, cytotoxicity control for Shn3 inhibitor project, dose response (AID 624134); assay type: functional
# cells [6] = assay type: functional, cell-based
# SUMO-activating enzyme [7] = biological target: T1, SUMO-activating enzyme (Homo sapiens, UniProt Q9UBT2); assay: blockers of SAE1/SAE2–UBC9 SUMO transfer – biochemical, HTRF, uHTS, primary screen (AID 2006); assay type: protein-complex assay
# T1 sequence (Q9UBE0 whole entry): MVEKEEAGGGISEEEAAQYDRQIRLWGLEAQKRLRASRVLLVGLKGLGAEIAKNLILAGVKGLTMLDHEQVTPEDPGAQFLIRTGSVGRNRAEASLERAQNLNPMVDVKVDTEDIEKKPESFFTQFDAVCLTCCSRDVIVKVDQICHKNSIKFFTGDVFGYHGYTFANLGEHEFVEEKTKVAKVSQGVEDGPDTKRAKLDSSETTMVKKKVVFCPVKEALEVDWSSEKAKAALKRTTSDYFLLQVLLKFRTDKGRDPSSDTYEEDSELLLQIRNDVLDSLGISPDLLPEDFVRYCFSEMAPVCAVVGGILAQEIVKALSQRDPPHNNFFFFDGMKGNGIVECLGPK
# T1 sequence (Q9UBT2 whole entry): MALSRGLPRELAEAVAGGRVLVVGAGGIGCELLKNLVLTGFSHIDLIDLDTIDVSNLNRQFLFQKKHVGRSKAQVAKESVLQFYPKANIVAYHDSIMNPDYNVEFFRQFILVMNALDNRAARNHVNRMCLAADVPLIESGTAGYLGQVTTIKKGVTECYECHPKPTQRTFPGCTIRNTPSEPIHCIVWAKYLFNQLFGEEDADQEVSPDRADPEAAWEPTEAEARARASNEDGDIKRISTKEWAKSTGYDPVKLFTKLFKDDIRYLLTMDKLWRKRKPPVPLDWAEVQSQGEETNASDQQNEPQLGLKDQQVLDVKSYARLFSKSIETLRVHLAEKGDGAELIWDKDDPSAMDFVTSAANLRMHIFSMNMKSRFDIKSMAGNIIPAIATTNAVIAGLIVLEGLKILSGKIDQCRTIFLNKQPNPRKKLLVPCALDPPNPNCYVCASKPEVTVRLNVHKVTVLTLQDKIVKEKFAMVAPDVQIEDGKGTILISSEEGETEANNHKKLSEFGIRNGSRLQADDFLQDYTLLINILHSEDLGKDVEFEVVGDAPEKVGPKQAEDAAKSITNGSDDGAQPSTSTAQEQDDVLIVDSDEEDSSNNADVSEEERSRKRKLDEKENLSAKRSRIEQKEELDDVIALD
# SUMO-activating enzyme [8] = biological target: T1, SUMO-activating enzyme; assay: blockers of UBC9-mediated SUMO conjugation – biochemical, AlphaScreen, SUMOylation inhibitor project, confirmation (AID 2018); assay type: functional
# [9] = Counterscreen for AddAB inhibitors: absorbance-based bacterial cell-based high throughput dose response assay for inhibitors of bacterial viability. [Related pubchem assays (depositor defined):AID435030, AID449728, AID449731, AID488942, AID488955, AID488956]; assay type: functional
# cells [10] = assay type: functional, cell-based; remark: listed apart in the source
# Exodeoxyribonuclease V = biological target: T2, Exodeoxyribonuclease V (Escherichia coli (strain K12), UniProt P04993+P07648+P08394); assay: RecBCD inhibition via phage-restricted bacterial growth – absorbance, V66 E. coli, mutant T4 phage, counter-screen for AddAB inhibitor project, dose response (AID 492957); assay type: functional, cell-based, Escherichia coli str. K-12 substr. MG1655
# T2 sequence (P04993 whole entry): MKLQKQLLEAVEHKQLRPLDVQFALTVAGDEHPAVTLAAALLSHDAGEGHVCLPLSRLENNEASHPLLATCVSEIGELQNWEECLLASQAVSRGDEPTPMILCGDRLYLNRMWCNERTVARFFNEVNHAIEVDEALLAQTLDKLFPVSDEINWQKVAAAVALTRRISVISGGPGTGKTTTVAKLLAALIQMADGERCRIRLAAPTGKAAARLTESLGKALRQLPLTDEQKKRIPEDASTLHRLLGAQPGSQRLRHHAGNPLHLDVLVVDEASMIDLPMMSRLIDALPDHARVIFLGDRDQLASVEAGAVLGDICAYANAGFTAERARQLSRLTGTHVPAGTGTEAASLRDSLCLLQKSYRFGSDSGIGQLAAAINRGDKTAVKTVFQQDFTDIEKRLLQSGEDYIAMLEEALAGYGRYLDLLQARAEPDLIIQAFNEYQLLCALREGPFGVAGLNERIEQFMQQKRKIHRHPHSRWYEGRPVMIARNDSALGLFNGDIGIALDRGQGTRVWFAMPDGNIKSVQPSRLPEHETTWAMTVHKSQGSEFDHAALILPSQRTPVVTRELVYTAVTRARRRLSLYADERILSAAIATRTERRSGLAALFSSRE
# T2 sequence (P07648 whole entry): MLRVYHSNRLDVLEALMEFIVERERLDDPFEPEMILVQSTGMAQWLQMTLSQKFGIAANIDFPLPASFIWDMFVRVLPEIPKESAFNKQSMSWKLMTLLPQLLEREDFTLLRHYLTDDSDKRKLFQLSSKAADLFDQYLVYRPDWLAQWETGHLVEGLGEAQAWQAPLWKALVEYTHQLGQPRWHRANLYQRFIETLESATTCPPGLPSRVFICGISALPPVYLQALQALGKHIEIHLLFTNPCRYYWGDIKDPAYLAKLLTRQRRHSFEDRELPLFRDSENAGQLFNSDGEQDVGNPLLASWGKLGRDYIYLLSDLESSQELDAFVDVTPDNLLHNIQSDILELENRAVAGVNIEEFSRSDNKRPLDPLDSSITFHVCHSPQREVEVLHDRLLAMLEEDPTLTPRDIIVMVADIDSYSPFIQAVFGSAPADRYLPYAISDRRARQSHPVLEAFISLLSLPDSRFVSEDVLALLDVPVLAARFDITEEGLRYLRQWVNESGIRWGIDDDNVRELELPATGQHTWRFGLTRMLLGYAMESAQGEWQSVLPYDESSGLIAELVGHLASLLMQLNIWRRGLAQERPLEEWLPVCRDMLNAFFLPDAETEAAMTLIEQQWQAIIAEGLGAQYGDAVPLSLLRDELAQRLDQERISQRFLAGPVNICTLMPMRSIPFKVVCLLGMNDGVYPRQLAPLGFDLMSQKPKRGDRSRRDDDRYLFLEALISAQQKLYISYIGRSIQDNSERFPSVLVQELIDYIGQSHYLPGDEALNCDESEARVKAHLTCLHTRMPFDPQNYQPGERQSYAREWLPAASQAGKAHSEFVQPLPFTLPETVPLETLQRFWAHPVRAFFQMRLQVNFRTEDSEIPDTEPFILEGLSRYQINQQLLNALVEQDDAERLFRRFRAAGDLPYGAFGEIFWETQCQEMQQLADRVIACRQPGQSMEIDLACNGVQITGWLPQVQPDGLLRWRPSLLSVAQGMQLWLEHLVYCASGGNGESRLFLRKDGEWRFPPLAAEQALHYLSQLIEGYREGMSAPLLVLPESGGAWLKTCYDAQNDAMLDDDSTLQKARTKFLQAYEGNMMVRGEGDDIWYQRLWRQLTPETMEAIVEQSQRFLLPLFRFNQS
# T2 sequence (P08394 whole entry): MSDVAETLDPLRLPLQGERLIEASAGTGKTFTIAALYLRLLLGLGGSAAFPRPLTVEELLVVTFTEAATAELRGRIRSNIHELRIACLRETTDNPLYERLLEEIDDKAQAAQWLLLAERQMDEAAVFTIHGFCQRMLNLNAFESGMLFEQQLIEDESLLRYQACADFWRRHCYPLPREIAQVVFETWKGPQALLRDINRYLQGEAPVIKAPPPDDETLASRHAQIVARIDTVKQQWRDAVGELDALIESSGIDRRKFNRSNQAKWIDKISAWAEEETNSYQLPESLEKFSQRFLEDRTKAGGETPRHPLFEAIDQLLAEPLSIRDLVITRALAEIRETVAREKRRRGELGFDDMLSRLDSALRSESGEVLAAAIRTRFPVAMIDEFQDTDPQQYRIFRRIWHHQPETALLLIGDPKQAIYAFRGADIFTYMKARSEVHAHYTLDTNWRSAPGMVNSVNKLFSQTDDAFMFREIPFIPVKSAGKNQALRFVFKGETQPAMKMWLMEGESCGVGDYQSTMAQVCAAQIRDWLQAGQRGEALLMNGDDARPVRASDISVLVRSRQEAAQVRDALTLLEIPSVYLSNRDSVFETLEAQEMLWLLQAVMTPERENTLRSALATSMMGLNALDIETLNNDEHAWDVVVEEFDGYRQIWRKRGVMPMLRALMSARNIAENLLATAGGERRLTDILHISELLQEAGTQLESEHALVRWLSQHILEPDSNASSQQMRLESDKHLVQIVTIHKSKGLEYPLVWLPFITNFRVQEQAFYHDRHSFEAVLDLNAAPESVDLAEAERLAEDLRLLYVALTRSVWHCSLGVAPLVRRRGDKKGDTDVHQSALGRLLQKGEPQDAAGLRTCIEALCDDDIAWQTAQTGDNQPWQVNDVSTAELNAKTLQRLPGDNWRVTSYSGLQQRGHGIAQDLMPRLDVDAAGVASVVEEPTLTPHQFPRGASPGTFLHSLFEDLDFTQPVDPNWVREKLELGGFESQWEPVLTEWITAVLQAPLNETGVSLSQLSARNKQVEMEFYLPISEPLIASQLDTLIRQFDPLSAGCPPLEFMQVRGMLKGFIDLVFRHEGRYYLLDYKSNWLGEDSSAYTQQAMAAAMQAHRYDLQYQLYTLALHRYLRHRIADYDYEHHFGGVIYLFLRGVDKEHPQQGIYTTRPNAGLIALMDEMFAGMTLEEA
# H4 = assay: Luminescence Cell-Based Dose Response HTS to Identify Activators of 5'UTR Stem-Loop Driven Prion Protein mRNA Translation in H4 Neuroglioblastoma Cells. [Related pubchem assays: 1829 (Project Summary), 1814 (Primary HTS)]; assay type: functional; conditions: Homo sapiens
# [11] = biological target: T3, Low molecular weight phosphotyrosine protein phosphatase (Homo sapiens, UniProt P24666); assay type: functional; conditions: read-out: IC50_Mean
# T3 sequence (P24666 whole entry): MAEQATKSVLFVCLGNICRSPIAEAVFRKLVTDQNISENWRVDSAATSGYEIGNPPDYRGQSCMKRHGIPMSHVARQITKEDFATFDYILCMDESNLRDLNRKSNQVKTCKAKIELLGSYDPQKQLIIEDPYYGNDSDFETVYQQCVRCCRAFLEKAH
# [12] = biological target: T3, Low molecular weight phosphotyrosine protein phosphatase; assay type: functional; conditions: read-out: IC50_Mean; remark: listed apart in the source
# [13] = biological target: T4, Mannose-6-phosphate isomerase (Homo sapiens, UniProt P34949); assay: MPI enzyme activity inhibition – biochemical, fluorescence intensity, coupled assay, primary screen (AID 1209)
# T4 sequence (P34949 whole entry): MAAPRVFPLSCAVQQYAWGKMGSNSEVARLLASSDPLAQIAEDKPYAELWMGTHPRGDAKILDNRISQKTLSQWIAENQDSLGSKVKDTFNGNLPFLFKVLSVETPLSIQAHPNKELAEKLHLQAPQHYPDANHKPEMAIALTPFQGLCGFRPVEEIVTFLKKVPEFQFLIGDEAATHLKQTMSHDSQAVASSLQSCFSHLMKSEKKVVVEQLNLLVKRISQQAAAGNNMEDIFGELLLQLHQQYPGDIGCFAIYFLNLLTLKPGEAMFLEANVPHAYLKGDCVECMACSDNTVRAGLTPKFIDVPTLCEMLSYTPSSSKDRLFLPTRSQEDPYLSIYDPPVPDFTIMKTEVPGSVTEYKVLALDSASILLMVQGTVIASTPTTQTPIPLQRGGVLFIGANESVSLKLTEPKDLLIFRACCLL
# [14] = Luminescence Cell-Based Dose Retest to Confirm Inhibitors of Cancer Stem Cells. [Related pubchem assays (depositor defined):AID2717, AID2721]; assay type: functional; conditions: Homo sapiens
# [15] = biological target: T5, Small ubiquitin-related modifier 1 (Homo sapiens, UniProt P63165); assay: SUMO1 protein-protein binding blockers, potency – biochemical, FRET, dose response (AID 624383); assay type: functional; conditions: read-out: IC50_Mean
# T5 sequence (P63165 whole entry): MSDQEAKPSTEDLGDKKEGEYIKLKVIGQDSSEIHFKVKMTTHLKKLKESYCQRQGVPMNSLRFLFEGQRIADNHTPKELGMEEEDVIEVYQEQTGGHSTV
# Kallikrein-7 = Kallikrein-7 (Homo sapiens, UniProt P49862); assay: Fluorescence Intensity-based biochemical primary high throughput dose response assay to identify activators of kallikrein-7 (K7) zymogen.
# Chain of Kallikrein-7 (P49862 whole entry): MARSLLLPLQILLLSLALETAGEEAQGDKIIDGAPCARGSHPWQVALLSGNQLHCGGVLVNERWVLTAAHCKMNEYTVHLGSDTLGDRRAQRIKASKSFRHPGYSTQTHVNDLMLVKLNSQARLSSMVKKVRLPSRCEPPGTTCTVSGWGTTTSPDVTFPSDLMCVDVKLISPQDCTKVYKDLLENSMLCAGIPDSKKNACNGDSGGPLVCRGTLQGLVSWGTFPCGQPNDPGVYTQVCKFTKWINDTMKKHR
# [16] = biological target: Luciferin 4-monooxygenase (Photinus pyralis, UniProt P08659); assay: inhibition of purified Photinus pyralis luciferase – biochemical, luminescence, dose response (AID 1891)
# Chain of Luciferin 4-monooxygenase (P08659 whole entry): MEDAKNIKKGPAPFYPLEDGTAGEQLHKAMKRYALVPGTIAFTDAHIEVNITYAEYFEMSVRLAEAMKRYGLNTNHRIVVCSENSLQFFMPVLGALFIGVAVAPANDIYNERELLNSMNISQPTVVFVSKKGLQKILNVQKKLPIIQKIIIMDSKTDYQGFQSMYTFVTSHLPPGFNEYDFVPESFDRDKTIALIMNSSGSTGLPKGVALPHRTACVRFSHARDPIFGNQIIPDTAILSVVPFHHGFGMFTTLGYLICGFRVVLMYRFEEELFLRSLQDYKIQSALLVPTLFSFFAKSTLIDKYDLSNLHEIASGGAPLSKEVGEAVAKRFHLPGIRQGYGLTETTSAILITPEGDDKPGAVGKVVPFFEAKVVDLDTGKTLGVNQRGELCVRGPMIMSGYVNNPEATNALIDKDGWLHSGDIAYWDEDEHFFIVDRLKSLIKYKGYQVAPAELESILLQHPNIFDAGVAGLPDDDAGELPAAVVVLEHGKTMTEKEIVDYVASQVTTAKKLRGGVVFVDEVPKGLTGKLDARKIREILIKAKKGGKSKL
# [17] = NIH3T3 cell viability loss – ATP luminescence, mouse fibroblasts, counter-screen, dose response (AID 2010); assay type: functional, cell-based;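 note: cells exposed to compound for about 90 hours before reading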
# [18] = biological target: T5, Small ubiquitin-related modifier 1; assay: SUMO1 protein interaction blockers, potency – biochemical, fluorescence polarization, uHTS hits, dose response (AID 624382); assay type: functional; conditions: read-out: IC50_Mean
# [19] = Trypanosoma cruzi growth suppression in host cells – NIH3T3 host cells, beta-gal luminescence, confirmation (AID 2044); assay type: functional, cell-based;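 note: intracellular parasites grown in NIH/3T3 mouse fibroblasts as host cells; luminescent beta-galactosidase reporter signal from transgenic T. cruzi replicating inside host cells; inhibitors lower the luminescence signal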
# [20] = Luminescence Cell-Based Dose Confirmation HTS to Identify Inhibitors of Platelet Dense Granule Release. [Related pubchem assays: 1663 (Primary HTS), 1678 (Summary of Project)]; assay type: functional
# cells [21] = assay: cells
# Chain of Induced myeloid leukemia cell differentiation protein Mcl-1 (Q07820 whole entry): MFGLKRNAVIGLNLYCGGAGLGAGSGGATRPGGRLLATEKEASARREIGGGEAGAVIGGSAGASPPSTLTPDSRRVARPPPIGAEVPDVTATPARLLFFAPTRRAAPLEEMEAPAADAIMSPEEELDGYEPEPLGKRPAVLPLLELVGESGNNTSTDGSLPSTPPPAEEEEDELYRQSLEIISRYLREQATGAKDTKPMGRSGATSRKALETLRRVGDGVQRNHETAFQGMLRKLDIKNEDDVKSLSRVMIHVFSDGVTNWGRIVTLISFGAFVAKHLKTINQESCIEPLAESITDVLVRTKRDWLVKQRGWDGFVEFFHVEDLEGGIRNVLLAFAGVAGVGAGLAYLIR
smiles,measurement,setting,value
O=C1CC(N2CCN(S(=O)(=O)c3ccccc3)CC2)C(=O)N1c1ccccc1 (configuration not stated),IC50,[1],9.4 µM (not active)
O=C(O)COn1c(-c2ccc(Cl)cc2)nc2ccc(Cl)cc21,IC50,[2],> 100 µM (inactive)
CCCCC(=O)NC(c1ccccc1Cl)c1ccc2cccnc2c1O (configuration not stated),AC50,INS1,0.645 µM (active)
same,AC50,[3],1.12 µM (active)
same,AC50,[4],0.856 µM (active)
same,AC50,[5],3.56 µM (active)
same,EC50,cells [6],> 350 µM (not active)
same,IC50,SUMO-activating enzyme [7],> 100 µM (inactive)
same,IC50,SUMO-activating enzyme [8],9.96 µM (active)
same,IC50,[9],> 119 µM (inactive)
same,EC50,cells [10],8.93 µM (active)
same,IC50,Exodeoxyribonuclease V,> 119 µM (inactive)
Cc1cc(C)n(C(=O)C23CC4CC(CC(C4)C2)C3)n1,IC50,[2],> 100 µM (inactive)
O=c1c(Cl)c(N/N=C/c2ccc(Cl)cc2)cnn1-c1ccccc1,EC50,H4,> 120 µM (not active)
same,IC50,[11],> 80 µM (inactive)
same,IC50,[1],1.93 µM (active)
same,IC50,[12],35 µM (inactive)
CC1=NN2C(=N)/C(=C\c3ccc(SCc4ccccc4)o3)C(=O)N=C2S1,IC50,[13],> 50 µM (not active)
O=C(Nc1ccc2c(c1)OCO2)c1cc(-c2ccc(O)cc2)on1,AC50,[14],0.356 µM (active)
same,IC50,[15],11.5 µM (active)
same,EC50,Kallikrein-7,62.9 µM (inactive)
same,EC50,[16],> 112 µM (not active)
same,EC50,[17],6.74 µM (active)
same,IC50,[18],> 66.6 µM (inactive)
same,EC50,[19],< 0.1 µM (active)
same,EC50,[20],> 112 µM (not active)
same,EC50,cells [21],> 10 µM (not active)

# — ChEMBL document CHEMBL1201862, “PubChem BioAssay data set” (2004)
